In brackets after ≈: the same amount, converted by molar mass. Activity calls are given as the source filed them.
Tests used:
[1] = test system: Staphylococcus aureus; assay: Antimicrobial activity against methicillin-resistant Staphylococcus aureus CBD-635 assessed as complete inhibition of bacterial growth at 5 times MIC after overnight incubation in presence of tetrahydrofolic acid; format: functional, organism-based
[2] = test system: Staphylococcus aureus; assay: Antimicrobial activity against methicillin-resistant Staphylococcus aureus CBD-635 assessed as zone of inhibition at 5 mg/ml after 24 hrs by disk diffusion assay; format: functional; conditions: for zone of inhibition at 5000 µg/mL: CBD-635, 24 h, read-out: IZ
[3] = test system: Staphylococcus aureus; assay: Antimicrobial activity against methicillin-resistant Staphylococcus aureus CBD-635 assessed as complete inhibition of bacterial growth after overnight incubation; format: functional
[4] = test system: Staphylococcus aureus; assay: Antimicrobial activity against N2,N4-dibenzylquinazoline-2,4-diamine-induced methicillin-resistant Staphylococcus aureus CBD-635 mutant M1 assessed as complete inhibition of bacterial growth after overnight incubation; format: functional
[5] = test system: Staphylococcus aureus; assay: Antimicrobial activity against N2,N4-dibenzylquinazoline-2,4-diamine-induced methicillin-resistant Staphylococcus aureus CBD-635 mutant M5 assessed as complete inhibition of bacterial growth after overnight incubation; format: functional
[6] = test system: Staphylococcus aureus; assay: Antimicrobial activity against N2,N4-dibenzylquinazoline-2,4-diamine-induced methicillin-resistant Staphylococcus aureus CBD-635 mutant M2 assessed as complete inhibition of bacterial growth after overnight incubation; format: functional
[7] = test system: Staphylococcus aureus; assay: Antimicrobial activity against N2,N4-dibenzylquinazoline-2,4-diamine-induced methicillin-resistant Staphylococcus aureus CBD-635 mutant M4 assessed as complete inhibition of bacterial growth after overnight incubation; format: functional
[8] = test system: Staphylococcus aureus; assay: Antimicrobial activity against N2,N4-dibenzylquinazoline-2,4-diamine-induced methicillin-resistant Staphylococcus aureus CBD-635 mutant M3 assessed as complete inhibition of bacterial growth after overnight incubation; format: functional
[9] = test system: Staphylococcus aureus; assay: Antimicrobial activity against N2,N4-dibenzylquinazoline-2,4-diamine-induced methicillin-resistant Staphylococcus aureus CBD-635 mutant M6 assessed as complete inhibition of bacterial growth after overnight incubation; format: functional
[10] = test system: Staphylococcus aureus; assay: Antimicrobial activity against N2,N4-dibenzylquinazoline-2,4-diamine-induced methicillin-resistant Staphylococcus aureus CBD-635 mutant M7 assessed as complete inhibition of bacterial growth after overnight incubation; format: functional

Compound | inhibition [1] | inhibition zone (IZ) [2] | MIC [3] [µM] | zone of inhibition at 5000 µg/mL [2] [mm] | other results
CNc1nc(NCc2ccco2)c2ccccc2n1 | inactive | inactive |  |  | 
CC(C)Nc1nc(NCc2ccco2)c2c(Cl)cccc2n1 | inactive |  | > 78 | 9 | 
CCCCNc1nc(NCc2ccccc2)c2ccc(Cl)cc2n1 | inactive |  | 0.73 (≈ 0.249 µg/mL) |  | MIC [4]: 0.73 µM (≈ 0.249 µg/mL); MIC [5]: 0.73 µM (≈ 0.249 µg/mL); MIC [6]: 0.73 µM (≈ 0.249 µg/mL); MIC [7]: 0.73 µM (≈ 0.249 µg/mL); MIC [8]: 0.73 µM (≈ 0.249 µg/mL); MIC [9]: 0.73 µM (≈ 0.249 µg/mL); MIC [10]: 0.73 µM (≈ 0.249 µg/mL)
CNc1nc(NCCO)nc2ccccc12 | inactive | inactive |  |  | 
CC(C)(C)Nc1nc(NCc2ccco2)c2ccccc2n1 | inactive |  | 340 (≈ 101 µg/mL) | 9 | 
c1ccc(CNc2nc(NCc3ccco3)c3ccccc3n2)cc1 | inactive |  | 30 (≈ 9.91 µg/mL) | 11 | 
COc1ccc2nc(NC(C)C)nc(NCc3ccco3)c2c1 | inactive |  | 80 (≈ 25 µg/mL) | 10 | 
c1coc(CNc2nc(NC3CC3)nc3ccccc23)c1 | inactive | inactive |  |  | 
CC(C)Nc1nc(NC(C)(C)C)c2ccccc2n1 | inactive | inactive |  |  | 
Cc1cccc2c(NCc3ccco3)nc(NC(C)C)nc12 | inactive |  | 340 (≈ 101 µg/mL) | 10 | 
CC(C)Nc1nc(NC(C)C)c2ccccc2n1 | inactive | inactive |  |  | 
CC(C)Nc1nc(N(C)C)c2ccccc2n1 | inactive | inactive |  |  | 
CC(C)Nc1nc(NCc2ccco2)c2cccc(Cl)c2n1 | inactive |  | 32 (≈ 10.1 µg/mL) | 10 | 
Cc1ccc(CNc2nc(NCc3ccccc3)c3ccccc3n2)cc1 | inactive |  | 28 (≈ 9.92 µg/mL) |  | MIC [4]: 28 µM (≈ 9.92 µg/mL); MIC [5]: 2.8 µM (≈ 0.992 µg/mL); MIC [6]: 2.8 µM (≈ 0.992 µg/mL); MIC [7]: 2.8 µM (≈ 0.992 µg/mL); MIC [8]: 2.8 µM (≈ 0.992 µg/mL); MIC [9]: 2.8 µM (≈ 0.992 µg/mL); MIC [10]: 2.8 µM (≈ 0.992 µg/mL)
CC(C)Nc1nc(NCc2ccccc2)c2ccccc2n1 | inactive |  | 34 (≈ 9.94 µg/mL) | 13 | 
CC(C)Nc1nc(NCc2ccco2)nc2ccccc12 | inactive |  | 35 (≈ 9.88 µg/mL) | 12 | 
CC(C)Nc1nc(NCC2CCCO2)c2ccccc2n1 (configuration not stated) | inactive | inactive |  |  | 
Cc1ccc2nc(NC(C)C)nc(NCc3ccco3)c2c1 | inactive | inactive |  |  | 
c1coc(CNc2nc(NC3CCCCC3)nc3ccccc23)c1 | inactive |  | 78 (≈ 25.1 µg/mL) | 10 | 
CNc1nc(NC2CC2)nc2ccccc12 | inactive | inactive |  |  | 
CC(C)Nc1nc(NC2CC2)c2ccccc2n1 | inactive | inactive |  |  | 
CC(C)Nc1nc(NCCO)nc2ccccc12 | inactive | inactive |  |  | 

Compound | inhibition [1] | inhibition zone (IZ) [2] | MIC [3] [µM] | zone of inhibition at 5000 µg/mL [2] [mm] | other results
FC(F)(F)CNc1nc(NCc2ccco2)c2ccccc2n1 | inactive | inactive |  |  | 
Clc1ccc(Nc2nc(NCc3ccco3)nc3ccccc23)cc1 | inactive |  | 29 (≈ 10.2 µg/mL) | 10 | 
CCNc1nc(NC(C)C)c2ccccc2n1 | inactive | inactive |  |  | 
Cc1ccc(CNc2nc(NCc3ccccc3)nc3ccccc23)cc1 | inactive |  | 71 (≈ 25.2 µg/mL) |  | MIC [4]: 2.8 µM (≈ 0.992 µg/mL); MIC [5]: 28 µM (≈ 9.92 µg/mL); MIC [6]: 2.8 µM (≈ 0.992 µg/mL); MIC [7]: 28 µM (≈ 9.92 µg/mL); MIC [8]: 28 µM (≈ 9.92 µg/mL); MIC [9]: 28 µM (≈ 9.92 µg/mL); MIC [10]: 28 µM (≈ 9.92 µg/mL)
OCCNc1nc(NCc2ccco2)c2ccccc2n1 | inactive | inactive |  |  | 
CC(C)Nc1nc(NCc2ccccc2)nc2ccccc12 | inactive |  | 34 (≈ 9.94 µg/mL) | 13 | 
CNc1nc(NC)c2ccccc2n1 | inactive | inactive |  |  | 
CNc1nc(NC2CCCC2)nc2ccccc12 | inactive | inactive |  |  | 
CC(C)Nc1nc(NCc2ccco2)c2ccc(Cl)cc2n1 | inactive |  | 32 (≈ 10.1 µg/mL) | 12 | 
CC(C)Nc1nc(NCc2ccco2)c2cc(Cl)ccc2n1 | inactive |  | 32 (≈ 10.1 µg/mL) | 11 | 
Cc1ccc(CNc2nc(NCc3ccc(C)cc3)c3ccccc3n2)cc1 | inactive |  | 27 (≈ 9.95 µg/mL) |  | MIC [4]: 27 µM (≈ 9.95 µg/mL); MIC [5]: 2.7 µM (≈ 0.995 µg/mL); MIC [6]: 27 µM (≈ 9.95 µg/mL); MIC [7]: 2.7 µM (≈ 0.995 µg/mL); MIC [8]: 2.7 µM (≈ 0.995 µg/mL); MIC [9]: 2.7 µM (≈ 0.995 µg/mL); MIC [10]: 2.7 µM (≈ 0.995 µg/mL)
COc1ccc2c(NCc3ccco3)nc(NC(C)C)nc2c1 | inactive | inactive |  |  | 
Clc1ccc(Nc2nc(NCc3ccco3)c3ccccc3n2)cc1 | inactive |  | 29 (≈ 10.2 µg/mL) | 10 | 
CC(C)Nc1nc(NC2CC2)nc2ccccc12 | inactive | inactive |  |  | 
COc1ccc(CNc2nc(NCc3ccc(OC)cc3)c3ccccc3n2)cc1 | inactive |  | 25 (≈ 10 µg/mL) |  | MIC [4]: > 250 µM; MIC [5]: 125 µM (≈ 50.1 µg/mL); MIC [6]: > 250 µM; MIC [7]: > 250 µM; MIC [8]: > 250 µM; MIC [9]: 125 µM (≈ 50.1 µg/mL); MIC [10]: > 250 µM
COc1ccc(CNc2nc(NCc3ccccc3)c3ccc(Cl)cc3n2)cc1 | inactive |  | 22 (≈ 8.91 µg/mL) |  | 
c1coc(CNc2nc(NC3CCC3)nc3ccccc23)c1 | inactive | inactive |  |  | 
COc1ccc(CNc2nc(NCc3ccccc3)nc3ccccc23)cc1 | inactive |  | 68 (≈ 25.2 µg/mL) |  | MIC [4]: 27 µM (≈ 10 µg/mL); MIC [5]: 27 µM (≈ 10 µg/mL); MIC [6]: 27 µM (≈ 10 µg/mL); MIC [7]: 2.7 µM (≈ 1 µg/mL); MIC [8]: 27 µM (≈ 10 µg/mL); MIC [9]: 2.7 µM (≈ 1 µg/mL); MIC [10]: 27 µM (≈ 10 µg/mL)
CCOC(=O)CNc1nc(NC(C)C)nc2ccccc12 | inactive | inactive |  |  | 
CSCCNc1nc(NC(C)C)nc2ccccc12 | inactive |  | > 360 | 9 | 
Cc1ccc2c(NCc3ccco3)nc(NC(C)C)nc2c1 | inactive | inactive |  |  | 
CC(C)Nc1nc(NCC(F)(F)F)c2ccccc2n1 | inactive | inactive |  |  | 

Compound | inhibition [1] | inhibition zone (IZ) [2] | MIC [3] [µM] | zone of inhibition at 5000 µg/mL [2] [mm] | other results
CCCCNc1nc(Nc2ccccc2)nc2ccccc12 | inactive |  | 34 (≈ 9.94 µg/mL) | 12 | 
CCNc1nc(NCc2ccco2)c2ccccc2n1 | inactive | inactive |  |  | 
c1ccc(CNc2nc(Nc3ccccc3)c3ccccc3n2)cc1 | inactive |  | 31 (≈ 10.1 µg/mL) | 10 | 
CC(C)Nc1nc(NC2CCCC2)c2ccccc2n1 | inactive |  | 37 (≈ 10 µg/mL) | 10 | 
COc1ccc(CNc2nc(NCc3ccc(Cl)cc3)c3ccc(Cl)cc3n2)cc1 | inactive |  | 51 (≈ 22.4 µg/mL) |  | 
Cc1cccc2nc(NC(C)C)nc(NCc3ccco3)c12 | inactive | inactive |  |  | 
CC(C)Nc1nc(NC2CCCC2)nc2ccccc12 | inactive |  | 190 (≈ 51.4 µg/mL) | 8 | 
CCCCNc1nc(Nc2ccccc2)c2ccccc2n1 | inactive |  | 34 (≈ 9.94 µg/mL) | 14 | 
c1coc(CNc2nc(NC3CCCC3)nc3ccccc23)c1 | inactive |  | 160 (≈ 49.3 µg/mL) | 12 | 
CC(C)Nc1nc(Nc2ccccc2)c2ccccc2n1 | inactive |  | 36 (≈ 10 µg/mL) | 10 | 
Cc1ccc(Nc2nc(NCc3ccco3)c3ccccc3n2)cc1 | inactive |  | 30 (≈ 9.91 µg/mL) | 9 | 
COc1cccc2nc(NC(C)C)nc(NCc3ccco3)c12 | inactive |  | > 80 | 9 | 
c1ccc(Nc2nc(Nc3ccccc3)c3ccccc3n2)cc1 | inactive |  | 32 (≈ 10 µg/mL) | 10 | 
Clc1ccc(CNc2nc(NCc3ccc(Cl)cc3)c3ccc(Cl)cc3n2)cc1 | inactive |  | 68 (≈ 30.2 µg/mL) |  | 
CNc1nc(NC(C)C)nc2ccccc12 | inactive | inactive |  |  | 
CNc1nc(NC(C)C)c2ccccc2n1 | inactive | inactive |  |  | 
CC(C)Nc1nc(NCc2ccco2)c2ccccc2n1 | inactive |  | 180 (≈ 50.8 µg/mL) | 10 | 
CCNc1nc(NC(C)C)nc2ccccc12 | inactive | inactive |  |  | 
CNc1nc(NCc2ccco2)nc2ccccc12 | inactive |  | 390 (≈ 99.2 µg/mL) | 10 | 
COc1cccc2c(NCc3ccco3)nc(NC(C)C)nc12 | inactive | inactive |  |  | 
